Measured values: patent publication US12048691B2 (SPERO THERAPEUTICS, INC., priority 2020, dated 2024)
Converted amounts (≈) assume the structure as drawn. Where a name gives a salt, the structure may show the parent alone. Read-outs that look alike come from different tables or passages of the source. Marks after values point to notes of the source that are not given here.

Tests used:
[1] = Particle size distribution of tebipenem pivoxil HBr batches by sieve method; assay type: physicochemical
[2] = test system: Enterobacterales overproducing AmpC; test: Broth microdilution susceptibility of isolates overexpressing AmpC; assay type: cell-based
Method: (§1) Frozen-form broth microdilution panels were manufactured by JMI Laboratories and contained cation-adjusted Mueller-Hinton broth. Quality assurance was performed by sterility checks, colony counts, and testing CLSI recommended quality control reference strains.

[3] = test system: P. aeruginosa isolates that overproduced AmpC; test: as above; assay type: cell-based; conditions: P. aeruginosa (32)
Method: as §1

E. coli [4] = test: Broth microdilution MIC against characterized subsets of UTI E. coli (2018-2020); assay type: cell-based
Source text: Isolates were collected from medical centers in all 9 US Census Regions and tested by broth microdilution. MIC interpretation was based on CLSI. Isolates that met MIC criteria were subjected to genome sequencing, followed by screening of extended-spectrum b-lactamase (ESBL) genes and epidemiology typing (MLST).

[5] = test system: bacteremia secondary to cUTI/AP; test: Efficacy in patients with cUTI or acute pyelonephritis and associated bacteremia; assay type: in vivo, human
Source text: The objective of this analysis was to evaluate the efficacy of TBP-PI-HBr in the subset of patients with associated bacteremia from a study of patients with either cUTI or acute pyelonephritis.

[6] = test system: Vancomycin-susceptible Enterococcus faecalis; test: Broth microdilution against Gram-positive clinical isolates; assay type: cell-based; conditions: E. faecalis
Method: The purpose of this study was to investigate the in vitro activity of tebipenem and comparator agents, including ertapenem and meropenem, against a recent collection of Gram-positive isolates associated with clinical infections. The susceptibility of 580 Gram-positive organisms were tested, including: Methicillin-susceptible Staphylococcus aureus (MSSA, 489 isolates), Methicillin-susceptible Staphylococcus epidermidis (MSSE, 31), other methicillin-susceptible coagulase-negative staphylococci (MSCONS, 29), and Vancomycin-susceptible Enterococcus faecalis (31). Bacterial species were identified by JMI Laboratories using standard microbiology methods and matrix-assisted laser desorption ionization-time of flight mass spectrometry (Bruker Daltonics, Bremen, Germany). The isolates were collected in 2018 and 2019 as part of the SENTRY surveillance program and selected to be representative of these species with 45.0% from the United States, 44.3% from Europe, 5.3% from the Asia-Pacific region, and 5.3% from Latin America. Isolates are primarily from pneumonia in hospitalized patients (498 isolates; 85.9%), urinary tract infections (42 isolates; 7.2%), and bloodstream infections (38 isolates; 6.6%). Isolates were tested in a central laboratory (JMI Laboratories) for antimicrobial susceptibility using the CLSI M07 (2018) reference broth microdilution method. JMI Laboratories produced frozen-form 96-well panels and used cation-adjusted Mueller-Hinton broth (CA-MHB) as the testing medium. All categorical interpretations used CLSI M100 (2021) and EUCAST v10.0 (2021) breakpoint criteria, where published. Quality control organisms include Escherichia coli ATCC 25922, Escherichia coli ATCC 35218, Enterococcus faecalis ATCC 29212, Pseudomonas aeruginosa ATCC 27853, and Staphylococcus aureus ATCC 29213 were tested concurrently with clinical isolates.

P. mirabilis = test: Broth microdilution against US UTI pathogens 2019-2020; assay type: cell-based; conditions: for % susceptible; CLSI: P. mirabilis (235), cefuroxime: oral breakpoint
Method: (§2) This study assessed the in vitro activity of tebipenem and comparator agents against Enterobacterales (ENT) responsible for UTIs in the US during 2019-2020. A total of 3,576 ENT recovered from urine samples during the 2019-2020 STEWARD Surveillance Program were included in the study. Isolates were collected from medical centers in all 9 US Census Regions and were centrally tested for susceptibility by reference broth microdilution method. MIC interpretation was performed based on CLSI criteria.

E. coli [7] = test: as above; assay type: cell-based; conditions: E. coli (2,339); cefuroxime: oral breakpoint
Method: as §2

Enterobacterales (ENT) = test: as above; assay type: cell-based; conditions: All (3,567); cefuroxime: oral breakpoint
Method: as §2

K. pneumoniae = test: as above; assay type: cell-based; conditions: K. pneumoniae (511); cefuroxime: oral breakpoint
Method: as §2

[8] = Enterobacterales (36), second cefuroxime line, footnote c (not given)

Q: What does the source list for `Br.C[C@@H](O)[C@H]1C(=O)N2C(C(=O)OCOC(=O)C(C)(C)C)=C(SC3CN(C4=NCCS4)C3)[C@H](C)[C@H]12` [Lot 2]?
A: particle size distribution, 45 um< [1]: 46%; particle size distribution, 75 um< [1]: 6%; particle size distribution, 106 um< [1]: 6%; particle size distribution, 150 um< [1]: 2%; particle size distribution, 300 um< [1]: 0%; particle size distribution, <45 um [1]: 40%

Q: Which results are given for `Br.C[C@@H](O)[C@H]1C(=O)N2C(C(=O)OCOC(=O)C(C)(C)C)=C(SC3CN(C4=NCCS4)C3)[C@H](C)[C@H]12` [Lot 1, Comil-ed]?
A: particle size distribution, 45 um< [1]: 35%; particle size distribution, 75 um< [1]: 27%; particle size distribution, 106 um< [1]: 16%; particle size distribution, 150 um< [1]: 1%; particle size distribution, 300 um< [1]: 0%; particle size distribution, <45 um [1]: 21%

Q: For `C[C@@H](O)[C@H]1C(=O)N2C(C(=O)O)=C(SCCN=CN)C[C@H]12` [Imipenem], which MIC50 [2] is on record?
A: Its MIC50 is 0.25 µg/mL (≈ 0.835 µM).

Q: And the MIC90 [2]?
A: The MIC90 was 0.5 µg/mL (≈ 1.67 µM).

Q: And the “CLSI %1” value ([2]; Enterobacterales (36))?
A: Its value is 0.0%.

Q: And the “CLSI % R” value ([2]; Enterobacterales (36))?
A: The value was 0.0%.

Q: And the “CLSI % S” value ([2]; Enterobacterales (36))?
A: Its value is 100.0%.

Q: And the MIC50 ([2]; Enterobacterales (36))?
A: The MIC50 was 0.25 μ/ml.

Q: And the MIC90 ([2]; Enterobacterales (36))?
A: The MIC90 was 0.5 μ/ml.

Q: What about the MIC range ([2]; Enterobacterales (36)) of the same compound?
A: Its MIC range is at most 0.12 to 1 μ/ml.

Q: And the “CLSI %1” value [3]?
A: Its value is 0.0%.

Q: What about the “CLSI % R” value [3] of the same compound?
A: Its value is 3.1%.

Q: And the “CLSI % S” value [3]?
A: Its value is 96.9%.

Q: What about the MIC range [3] of the same compound?
A: Its MIC range is 0.5 to 8 μ/ml.

Q: Which MIC50 (E. coli [4]) does the source give for `C[C@@H](O)[C@H]1C(=O)N2C(C(=O)OCOC(=O)C(C)(C)C)=C(SC3CN(C4=NCCS4)C3)[C@H](C)[C@H]12` [Tebipenem pivoxil] here?
A: Its MIC50 is 0.03/- (-) μg/mL.

Q: With `C[C@@H](O)[C@H]1C(=O)N2C(C(=O)OCOC(=O)C(C)(C)C)=C(SC3CN(C4=NCCS4)C3)[C@H](C)[C@H]12` [Tebipenem pivoxil HBr, tebipenem pivoxil hydrobromide] as the compound, how does the Clinical cure rate ([5]; EOT) read?
A: Its Clinical cure rate is 100%.

Q: What about the Clinical cure rate ([5]; TOC) of the same compound?
A: The Clinical cure rate was 97.9%.

Q: What about the Overall response rate ([5]; end-of-treatment (EOT)) of the same compound?
A: Its Overall response rate is 93.6%.

Q: What about the Clinical cure rate ([5]; late-follow-up (LFU) visit) of the same compound?
A: The Clinical cure rate was “approximately 89%”.

Q: What about the Overall response rate ([5]; test-of-cure (TOC)) of the same compound?
A: Its Overall response rate is 72.3%.

Q: For `CN(C)c1cc(NC(=O)CNC(C)(C)C)c(O)c2c1C[C@H]1C[C@H]3[C@H](N(C)C)C(O)=C(C(N)=O)C(=O)[C@@]3(O)C(O)=C1C2=O` [Tigecycline], which MIC50 [2] is on record?
A: The MIC50 was 0.25 µg/mL (≈ 0.427 µM).

Q: What about the MIC90 [2] of the same compound?
A: The MIC90 was 1 µg/mL (≈ 1.71 µM).

Q: And the “CLSI %1” value ([2]; Enterobacterales (36))?
A: The value was 5.6%.

Q: And the “CLSI % R” value ([2]; Enterobacterales (36))?
A: Its value is 0.0%.

Q: What about the “CLSI % S” value ([2]; Enterobacterales (36)) of the same compound?
A: The value was 94.4^d %.

Q: What about the MIC range ([2]; Enterobacterales (36)) of the same compound?
A: Its MIC range is at most 0.06 to 4 μ/ml.

Q: For `CC1(C)S[C@@H]2[C@H](NC(=O)[C@H](N)c3ccccc3)C(=O)N2[C@H]1C(=O)O` [ampicillin], which Susceptibility rate [6] is on record?
A: Its Susceptibility rate is 100.0%.

Q: Which results are given for Tebipenem pivoxil?
A: MIC50 (P. mirabilis): 0.12 µg/mL; MIC90 (P. mirabilis): 0.12 µg/mL; concentration inhibiting all PM (P. mirabilis): 0.25 mg/L

Q: Which results are given for `CO/N=C(\C(=O)N[C@@H]1C(=O)N2C(C(=O)O)=C(COC(N)=O)CS[C@H]12)c1ccco1` [Cefuroxime]?
A: % susceptible; CLSI (E. coli [7]): (63.1) %; % susceptible; CLSI (Enterobacterales (ENT)): (63.5) %; % susceptible; CLSI (K. pneumoniae): (75.3) %; % susceptible; CLSI (P. mirabilis): (94.4) %; % susceptible; CLSI (P. mirabilis; listed as cefuroxime): 94.4%; MIC50 [2]: > 64 µg/mL; MIC90 [2]: > 64 µg/mL; CLSI %1 ([2]; Enterobacterales (36)): 5.6%; CLSI % R ([2]; Enterobacterales (36)): 94.4%; CLSI % S ([2]; Enterobacterales (36)): 0.0^b %; CLSI %1 [2, 8]: 5.6%; CLSI % R [2, 8]: 94.4%; CLSI % S [2, 8]: 0.0^c %
